The source of these data is patent publication US4255444A, “4-Hydroxy-2-pyrone derivatives having antihyperlipaemic activity” (Sankyo Company Limited, priority 1978, dated 1981).

The target in this test is cholesterol biosynthesis (crude enzyme extracted from rat liver). As to the kind of experiment: Inhibition of cholesterol biosynthesis by crude enzyme extracted from rat liver (radioactive acetic acid incorporation, digitonin precipitation). Format: biochemical. The settings on record: 37° C., 60 minutes, compound added at beginning of reaction. Here is the method:
Crude enzyme extracted from rat liver was reacted with radioactive acetic acid at 37° C. for 60 minutes. The radioactive cholesterol thus biosynthesized was saponified and precipitated with digitonin, and the radioactivity was measured to determine the amount of cholesterol produced. The reaction was repeated, but adding one of the compounds of the invention listed in the following Table at the beginning of the reaction, and the amount of cholesterol biosynthesized was again determined, to give a quantitative measurement of the inhibitory effect of the compounds of the invention. The concentrations (μg/ml) of the compounds of the invention and of a known compound (clofibrate) which gave approximately 50% inhibition of cholesterol biosynthesis are reported in the following Table as I50 values [see Bricker et al, The Journal of Biological Chemistry, 247, 4914 (1972)]. The compounds of the invention are identified in the following Table by the numbers heretofore assigned to them.
In the case of `Cc1ccc2ccccc2c1CCC1CC(O)CC(=O)O1` (centres unmarked) [Compound No. 1, 4-Hydroxy-6-[2-(2-methyl-1-naphthyl)ethyl]-3,4,5,6-tetrahydro-2H-pyran-2-one], the “I50 (concentration giving approximately 50% inhibition of cholesterol biosynthesis)” value worked out at 0.75 µg/mL.
With `CC(C)(Oc1ccc(Cl)cc1)C1CC(O)CC(=O)O1` (centres unmarked) [Compound No. 4, 6-[1-(4-Chlorophenoxy)-1-methylethyl]-4-hydroxy-3,4,5,6-tetrahydro-2H-pyran-2-one], the “I50 (concentration giving approximately 50% inhibition of cholesterol biosynthesis)” value stood at 21.3 µg/mL.
`CC(Oc1ccccc1)C1CC(O)CC(=O)O1` (centres unmarked) [Compound No. 2, 4-Hydroxy-6-(1-phenoxyethyl)-3,4,5,6-tetrahydro-2H-pyran-2-one]: the “I50 (concentration giving approximately 50% inhibition of cholesterol biosynthesis)” value worked out at 42.3 µg/mL.
`O=C1CC(O)CC(CCc2cccc3ccccc23)O1` (centres unmarked) [Compound No. 3, 4-Hydroxy-6-[2-(1-naphthyl)ethyl]-3,4,5,6-tetrahydro-2H-pyran-2-one]: the “I50 (concentration giving approximately 50% inhibition of cholesterol biosynthesis)” value stood at 6.4 µg/mL.
Regarding `CCOC(=O)C(C)(C)Oc1ccc(Cl)cc1` [Clofibrate, reference compound], the “I50 (concentration giving approximately 50% inhibition of cholesterol biosynthesis)” value was 250 to 300 µg/mL.
